Laboratory results reported in patent publication US20230047208A1, “RNA Splicing Modulation” (The General Hospital Corporation, priority 2020, published 2023).

Columns and labels:
CFTR protein = assay: CFTR western blot, mature CFTR protein in Flp-In-293 cells stably expressing c.2988G>A; type: cell-based, human; conditions: Flp-In-293 c.2988G>A stable cells, 60 μM, 5 days
Procedure: For CFTR WB, 40 μg of protein lysate was separated on 7.5% Criterion TGX protein gel (BioRad) and transferred to a PVDF membrane using a Trans-Blot Turbo Transfer System (BioRad). After blocking in 5% non-fat dry milk (BioRad), the membrane was probed with mouse monoclonal anti-CFTR antibody (1:5000 in PBST) that recognizes amino acids 1204-1211 (596, CFFT, North Carolina Chapel Hill). Rabbit monoclonal anti-Na+K+ ATPase (Abcam) (1:50,000 in PBST) was used as a loading control. Secondary antibodies were anti-mouse (1:150,000 GE Healthcare) and anti-rabbit (1:100,000 GE Healthcare), respectively. Blots were exposed on film using ECL Primer Western Blotting Detection Reagent (GE Healthcare)
WT CFTR-EMG-i14-i18, CFTR-EMG-i14-i18 harboring c.2988G>A, Flp-In-CFBE, and Flp-In-293 cells stably expressing WT-EMG and c.2988G>A EMG were generated. Both Flpin-293 and Flp-In-CFBE cells lack endogenous CFTR expression (CFBE41o-) and contain a single Flp recombinase target site. Co-transfection of EMG plasmid with pOG44 (a plasmid encoding Flp recombinase) allowed for genomic integration at the FRT site. Hygromycin was used for stable cell selection.
CFTR protein levels was assessed in Flp-In-293 cells stably expressing the c.2988G>A splicing variant after treatment with Compound (I) for 5 days. […]

[1] = tested on: human ELP1 gene with a Exon 20 splice mutation; assay: In vivo full-length and Δ20 ELP1 mRNA by RT-qPCR in TgFD9 mice; parameters: species or system TgFD9 transgenic mice; conditions: oral gavage once daily for 7 days, 10, 30, 60 or 100 mg/kg
Procedure: FIGS. 7A-7G show the relative expression of full-length (FL) and Δ20 ELP1 mRNA (left panel), and ELP1 protein quantification (right panel) in brain (FIG. 7A) and liver (FIG. 7B) after oral doses of Compound (I) ranging from 10 to 100 mg/kg in adult transgenic TgFD9 mouse (n=4-6 mice in each treatment group). Comparisons were done within the same group, against the vehicle-treated mice. In the figure, *p<0.05; **p<0.01; ***p<0.001.
FIGS. 7C-E show the relative expression of full-length (FL) and Δ20 ELP1 mRNA (left graphs), and ELP1 protein quantification (right graphs) in kidney (FIG. 7C), heart (FIG. 7D) and skin (FIG. 7E) after oral doses of Compound (I) ranging from 10 to 100 mg/kg in adult transgenic TgFD9 mouse (n=4-6 mice in each treatment group). […] The levels of compound were measured using mass spectrometry. […]
Compound (I) was evaluated in vivo to determine whether splicing correction can lead to a concomitant increase in ELP1 protein. […]
Brain, liver, lung, kidney, heart and skin tissues were removed and snap frozen in liquid nitrogen. […] The yield, purity and quality of the total RNA for each sample were determined using a Nanodrop ND-1000 spectrophotometer. Full-length and mutant ELP1 mRNA expression was quantified by quantitative real-time PCR (qRT-PCR) analysis using CFX384 Touch Real-Time PCR Detection System (BioRad). […] Data were analyzed using SDS software.

Clc1nc(NCc2ccncc2)c2cc[nH]c2n1 [Compound (I), 2-chloro-N-(pyridin-4-ylmethyl)-7H-pyrrolo[2,3-d]pyrimidin-4-amine]
amount of mature CFTR protein (CFTR protein): ~20 % of WT | full-length ELP1 transcript [1]: increased full-length ELP1 transcript in a dose-dependent manner
